Data published in ChEMBL document CHEMBL3822454, “On the vasoprotective mechanisms underlying novel β-phosphorylated nitrones: Focus on free radical characterization, scavenging and NO-donation in a biological model of oxidative stress” (Eur J Med Chem, 2016).
pEC50, pIC50: −log10 of the molar value. The source made the active and inactive calls. No cut-off for these calls is given here.

How the values were obtained:
A549 [1] = test: Cytotoxicity against human A549 cells assessed as reduction in cell viability measured after 48 hrs by MTT assay; assay type: cell-based; details: A549, 48 h
Aorta [2] = test: (§1) Vasoprotective activity against oxidative stress-induced impairment of ACh-stimulated vasorelaxation in Sprague-Dawley rat endothelium-intact aortic rings assessed as reduction in L-phenylephrine hydrochloride-induced contraction preincubated for 10 to 20 mins in presence of xanthine-xanthine oxidase system prior to L-phenylephrine hydrochloride addition; assay type: functional
A549 [3] = test: Cytotoxicity against human A549 cells assessed as reduction in cell viability measured after 48 hrs by luminescence-based ATP assay; details: A549, 48 h
Aorta [4] = test: Potentiation of SNP-induced vasorelaxant activity in Sprague-Dawley rat endothelium-intact aortic rings assessed as reduction in L-phenylephrine hydrochloride-induced contraction at 200 uM relative to SNP; assay type: functional
Aorta [5] = test: Protection against NADPH-induced superoxide-mediated tissue damage in Sprague-Dawley rat endothelium-intact aortic rings assessed as inhibition of protein carbonyl formation at 200 uM pre-incubated for 30 mins in presence of DTC prior to NADPH addition measured after 60 mins using 7-hydrazino-4-nitrobenzo-2,1,3-oxadiazole by fluorimetric analysis; assay type: functional
[6] = Antioxidant activity assessed as DPPH scavenging activity measured after 3 mins by spectrophotometric method; assay type: physicochemical
[7] = Cytotoxicity against BAECs assessed as decrease in total intracellular LDH content at 15 mM measured after 3 hrs by LDH assay relative to vehicle control; assay type: cell-based, Bos taurus; design: scale not given: the % may be the effect or the level left; details: cattle, baec, 15000 µM
[8] = Cytotoxicity against BAEC assessed as reduction in cell viability measured after 24 hrs by MTT assay; design: species or system Bos taurus; details: cattle
[9] = Antioxidant activity assessed as inhibition of […]-xanthine oxidase system-mediated superoxide formation measured over 7 mins by lucigenin-based chemiluminescence analysis; assay type: physicochemical
A549 [10] = test: Cytotoxicity against human A549 cells assessed as reduction in cell viability measured after 24 hrs by MTT assay; assay type: cell-based; details: a549, 24 h
Aorta [11] = test: as §1, with “system at 200 uM” for “system”, “addition relative to ACh” for “addition”; assay type: functional
Aorta [12] = test: (§2) Protection against NADPH-induced superoxide-mediated tissue damage in Sprague-Dawley rat endothelium-intact aortic rings assessed as decomposition of methyl radical adduct preincubated for 30 mins at 200 uM in presence of DTC prior to NADPH addition after 60 mins followed by renewal of media with NADPH-compound mixture measured after 4 days by EPR spectroscopy relative to control; assay type: functional
A549 [13] = test: Cytotoxicity against human A549 cells assessed as reduction in cell viability measured after 48 hrs by FMCA assay; assay type: cell-based; details: A549, 48 h
[14] = Antioxidant activity assessed as AAPH free radical scavenging activity measured as trolox equivalent by TRAP assay; assay type: physicochemical
[15] = Cytotoxicity against BAECs assessed as reduction in cell viability measured after 24 hrs by neutral red assay; details: Bos taurus, BAEC
[16] = Induction of nitric oxide release in water using Fe2+-MGD2 as nitric oxide trap at pH 6.56 measured 70 mins post UV-photolysis in dark condition by EPR spectroscopy; assay type: physicochemical; details: buffer, pH 6.56, 70 min
Aorta [17] = test: as §2, with “as” for “as decomposition of”, “formation pre-incubated” for “preincubated”, “addition measured” for “addition”, “20 mins in presence of DPI” for “4 days”, “spectroscopy” for “spectroscopy relative to control”; assay type: functional
[18] = target: Xanthine dehydrogenase/oxidase (Homo sapiens, UniProt P47989); test: Inhibition of xanthine oxidase (unknown origin) using xanthine as substrate assessed as inhibition of uric acid formation at 1 to 100 uM after 30 mins by spectrophotometric method; details: 0.5 h
Chain of Xanthine dehydrogenase/oxidase (P47989 whole entry): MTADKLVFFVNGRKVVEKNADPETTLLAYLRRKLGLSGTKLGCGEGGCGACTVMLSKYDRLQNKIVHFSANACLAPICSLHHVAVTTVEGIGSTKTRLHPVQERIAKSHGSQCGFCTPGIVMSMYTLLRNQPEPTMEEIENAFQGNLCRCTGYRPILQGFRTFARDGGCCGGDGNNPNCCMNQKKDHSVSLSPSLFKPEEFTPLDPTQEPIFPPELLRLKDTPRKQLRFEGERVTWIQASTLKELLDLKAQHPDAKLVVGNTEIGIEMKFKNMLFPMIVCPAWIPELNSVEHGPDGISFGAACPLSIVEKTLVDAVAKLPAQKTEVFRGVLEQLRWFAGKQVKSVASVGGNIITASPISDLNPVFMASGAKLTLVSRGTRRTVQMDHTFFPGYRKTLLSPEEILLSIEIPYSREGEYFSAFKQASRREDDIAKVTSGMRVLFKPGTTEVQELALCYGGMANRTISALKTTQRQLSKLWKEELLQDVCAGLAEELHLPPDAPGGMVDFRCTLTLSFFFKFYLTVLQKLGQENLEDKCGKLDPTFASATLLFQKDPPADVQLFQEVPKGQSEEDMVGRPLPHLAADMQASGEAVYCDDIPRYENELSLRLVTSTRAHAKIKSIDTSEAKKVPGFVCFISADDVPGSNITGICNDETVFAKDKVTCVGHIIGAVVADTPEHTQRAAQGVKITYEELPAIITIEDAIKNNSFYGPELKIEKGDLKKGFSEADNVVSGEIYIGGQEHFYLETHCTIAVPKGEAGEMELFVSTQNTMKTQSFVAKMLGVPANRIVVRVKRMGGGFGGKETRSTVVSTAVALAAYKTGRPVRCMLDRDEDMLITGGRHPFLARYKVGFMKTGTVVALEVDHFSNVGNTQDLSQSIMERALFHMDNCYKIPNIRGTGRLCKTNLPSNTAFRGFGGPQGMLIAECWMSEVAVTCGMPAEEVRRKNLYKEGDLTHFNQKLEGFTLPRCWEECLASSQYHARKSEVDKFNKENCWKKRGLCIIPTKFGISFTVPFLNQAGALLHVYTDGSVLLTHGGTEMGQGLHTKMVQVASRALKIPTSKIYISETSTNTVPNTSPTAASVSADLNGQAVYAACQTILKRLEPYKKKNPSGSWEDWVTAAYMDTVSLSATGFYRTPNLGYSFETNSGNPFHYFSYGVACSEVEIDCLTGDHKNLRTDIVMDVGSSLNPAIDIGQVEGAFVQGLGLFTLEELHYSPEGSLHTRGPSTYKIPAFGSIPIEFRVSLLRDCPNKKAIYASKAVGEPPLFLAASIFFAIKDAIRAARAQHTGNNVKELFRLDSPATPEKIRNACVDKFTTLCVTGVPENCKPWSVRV

[19] = Cytotoxicity against BAEC assessed as decrease in total intracellular LDH content at 15 mM measured after 1 hr by LDH assay relative to vehicle-treated control; assay type: cell-based, Bos taurus; design: scale not given: the % may be the effect or the level left; details: cattle, 15000 µM
Aorta [20] = test: Protection against superoxide-mediated tissue damage in Sprague-Dawley rat endothelium-intact aortic rings assessed as methyl radical adduct formation preincubated for 30 mins at 200 uM in presence of DTC measured after 4 days by EPR spectroscopy; assay type: functional
Aorta [21] = test: Toxicity in Sprague-Dawley rat endothelium-intact aortic rings at 15 mM measured after 20 mins; details: 15000 µM
[22] = Half life of the compound in phosphate buffer at pH 6 by UV-illumination; assay type: ADME
[23] = Induction of nitric oxide release in water using Fe2+-MGD2 as nitric oxide trap at pH 6.56 incubated in ambient light for 4.5 hrs by EPR spectroscopy; assay type: physicochemical; details: buffer, pH 6.56, 4.5 h

| SMILES | pIC50 (A549 [1]) | pEC50 (Aorta [2]) | pIC50 (A549 [3]) | Rmax (Aorta [4]) [%] | inhibition (Aorta [5]) | pEC50 [6] | Activity [7] [%] | IC10 [8] [mM] | pIC50 [9] | IC10 (A549 [10]) [mM] | Rmax (Aorta [11]) [%] | Activity (Aorta [12]) [%] | pIC50 (A549 [13]) | Activity [14] [equiv] | Activity [16] | other results |
| --- | --- | --- | --- | --- | --- | --- | --- | --- | --- | --- | --- | --- | --- | --- | --- | --- |
| CC(C)(C)/[N+]([O-])=C/c1ccccc1 | 1.97 | 6.76 | 2.02 | 98 | inactive | < 3.00 | 10 | 2.4 | < 2.40 | 5.1 | 62 | 25 | 1.94 | 0.02 | Not Active | pIC50 [15]: 2.03 |
| CCOP(=O)(OCC)C(C)(C)/[N+]([O-])=C/c1cc(OC)c(O)c(OC)c1 | 1.82 | 7.17 | 1.83 | 101 | Active | 3.72 | 8 | 2.6 | 4.14 | 6.1 | 77 | < 5 | 1.92 | 1.44 |  | Activity (Aorta [17]): inactive; inhibition (INH) [18]: Not Active; Activity [19]: < 10%; Activity (Aorta [20]): inactive; Activity (Aorta [21]): Non-toxic |
| CC(C)(C)N([O])C(O)c1ccccc1 (configuration not stated) |  |  |  |  |  |  |  |  |  |  |  |  |  |  |  | half-life [22]: 1.5 min |
| CCOP(=O)(OCC)C(C)(C)/[N+]([O-])=C/c1ccc(Cl)cc1 |  |  |  |  |  |  |  |  |  |  |  |  |  |  | Active | Activity [23]: Active |
| CCOP(=O)(OCC)C(C)(C)/[N+]([O-])=C/c1ccccc1 | 1.91 | 6.83 | 1.97 | 100 | Active | < 3.00 | 19 | 1.1 | 3.43 | 4.9 | 75 | 30 | 1.90 | 0.02 |  |  |
